Laboratory results as given in ChEMBL document CHEMBL4376815, “The Development Process for Discovery and Clinical Advancement of Modern Antimalarials” (J Med Chem, 2019).

What was measured:
[1] = Drug level in human Plasma treated with [14C]-KAE609 assessed metabolite formation; format: ADME, cell-free
[2] = Tmax in human at 10 to 1200 mg and measured up to 360 hrs by LC-MS/MS method; format: ADME; settings: in vivo
[3] = Cmax in human at 10 to 1200 mg and measured up to 360 hrs by LC-MS/MS method; format: ADME; settings: in vivo
[4] = Cardiotoxicity in human assessed as effect on QT parameters at 800 mg; format: toxicity
[5] = Half life in human at 10 to 1200 mg and measured up to 360 hrs by LC-MS/MS method; format: ADME; settings: in vivo
[6] = system: Plasmodium falciparum; experiment: Antimalarial activity against Plasmodium falciparum infected in human assessed as median parasite clearance time at 400 […], po administered for 3 consecutive day and measured on day 5; format: functional
[7] = system: Plasmodium vivax; experiment: Antimalarial activity against Plasmodium vivax infected in human assessed as median parasite clearance time at 400 […], po administered for 3 consecutive day and measured on day 5; format: functional
[8] = Apparent clearance in human at 10 to 1200 mg and measured up to 360 hrs by LC-MS/MS method; format: ADME; settings: in vivo, read-out: CL(app)
[9] = Half life in Wistar Hannover rat at 3 mg/kg, iv by LC-MS/MS analysis; format: ADME, organism-based; settings: in vivo
[10] = system: Plasmodium falciparum; experiment: Antimalarial activity against Plasmodium falciparum assessed as reduction in parasite growth after 72 hrs by SYBR-green based fluorescence assay; format: functional, organism-based
[11] = Plasma clearance in Wistar Hannover rat at 3 mg/kg, iv by LC-MS/MS analysis; format: ADME, organism-based
[12] = Volume of distribution at steady state in Wistar Hannover rat at 3 mg/kg, iv by LC-MS/MS analysis; format: ADME, organism-based; settings: in vivo, read-out: Vdss
[13] = system: Plasmodium vivax; experiment: Antimalarial activity against Plasmodium vivax infected in human assessed as median parasite clearance time at 800 […], po and measured on day 5; format: functional
[14] = system: Plasmodium vivax; experiment: Antimalarial activity against Plasmodium vivax assessed as reduction in parasite growth after 72 hrs by SYBR-green based fluorescence assay; format: functional, organism-based
[15] = Volume of distribution in human at 10 to 1200 mg and measured up to 360 hrs by LC-MS/MS method; format: ADME; settings: in vivo
[16] = Half life in Wistar Hannover rat at 10 mg/kg, po by LC-MS/MS analysis; format: ADME, organism-based; settings: in vivo
[17] = Tmax in Wistar Hannover rat at 10 mg/kg, po by LC-MS/MS analysis; format: ADME, organism-based; settings: in vivo
[18] = Cmax in Wistar Hannover rat at 10 mg/kg, po by LC-MS/MS analysis; format: ADME, organism-based; set-up: dose 10 mg/kg, route oral; settings: in vivo
[19] = system: Plasmodium falciparum; experiment: Antimalarial activity against Plasmodium falciparum infected in human assessed as median parasite clearance time at 800 […], po and measured on day 5; format: functional
[20] = Half life in human infected with Plasmodium falciparum at 400 mg administered for 3 consecutive days and measured up to 192 hrs; format: ADME; settings: in vivo
[21] = Cardiotoxicity in human assessed as effect on QT parameters at 800 mg in presence of PPQ; format: toxicity; settings: in vivo
[22] = Half life in human infected with Plasmodium vivax at 400 mg administered for 3 consecutive days and measured up to 192 hrs; format: ADME; settings: in vivo
[23] = Oral bioavailability in Wistar Hannover rat at 10 mg/kg by LC-MS/MS analysis; format: ADME, organism-based; settings: in vivo
[24] = Half life in human; format: ADME
[25] = Drug recovery in feces of po dosed human by LC-MS/MS analysis; format: ADME, organism-based; settings: faeces, read-out: Drug recovery
[26] = Inhibition of Plasmodium falciparum PI4K by pull down assay; set-up: species or system Plasmodium vivax
[27] = system: Plasmodium falciparum; experiment: Antimalarial activity against Plasmodium falciparum asexual blood stage form infected in human assessed as parasite clearance half-life at 10 mg, po after 8 days; format: functional, organism-based

Compound `C[C@H]1Cc2c([nH]c3cc(Cl)c(F)cc23)-c2c3cc(Cl)ccc3nc(=O)n21` has a Drug uptake [1] of 8%.

Compound `CC1(C)c2nc(-c3ccc(F)cc3)c(Nc3ccc(F)cc3)n2CCN1C(=O)CN` [GANAPLACIDE] has a Tmax [2] of 1 to 6 h, a Cmax [3] of 7.6 to 2720 ng/mL and an Activity [4] of 87.5%. It also gave a half-life [5] of 47 to 70 h, a Time [6] of 45 h and a Time [7] of 24 h. For the same compound, the clearance [8] was 267 to 583 mL/min, the half-life [9] was 6.6 h and the EC50 [10] was 12.6 nM. The clearance [11] was 90 mL/min/kg, the Vd [12] was 29.5 L/kg and the Time [13] was 24 h. It also gave an EC50 [14] of 5.5 nM, a Vd [15] of 1610 to 2410 L and a half-life [16] of 5.7 h. For the same compound, the Tmax [17] was 2 h, the Cmax [18] was 139 ng/mL and the Time [19] was 49 h. The half-life [20] was 44 h, the Activity [21] was 58.3% and the half-life [22] was 44 h. The bioavailability [23] was 48%.

Work on `C[C@H]1Cc2c([nH]c3cc(Cl)c(F)cc23)-c2c3cc(Cl)c(O)cc3nc(=O)n21` yielded a half-life [24] of 25 h, a dose excreted [25] of 36% and a Drug uptake [1] of 12%.

In the case of `Nc1ncc(-c2ccc(C(=O)N3CCC(N)C3)cc2)nc1-c1ccc(C(F)(F)F)cc1` (stereo not drawn), the EC50 [26] is reported as 1.6 nM.

`O[C@@H](c1cc(C(F)(F)F)nc2c(C(F)(F)F)cccc12)[C@H]1CCCCN1` gave a T1/2 [27] of 6.2 h.
